Values after ≈ are worked out from the molar mass of the structure shown. Active and inactive are the calls of the source. No cut-off for these calls is given here. Non-standard residues stand in square brackets, D forms with d. Residues, ends and D or L forms follow the SMILES beside them. ξ: configuration not given here. Pro(3ξ,4ξ-(CH2)4) = O=C(O)[C@H]1NCC2CCCCC21; Tic = O=C(O)[C@@H]1Cc2ccccc2CN1; Orn = NCCC[C@H](N)C(=O)O
Experiments:
Salmonella typhimurium = assay: Antibacterial activity against Salmonella Typhimurium ATCC 13311; format: functional; settings: for Activity: Salmonella enterica subsp. enterica serovar Typhimurium
Staphylococcus aureus = assay: Antibacterial activity against methicillin/gentamicin/tetracycline resistant Staphylococcus aureus ATCC 33592; format: functional

What does the source list for CSCC[C@H](NC(=O)[C@H](CC(C)C)NC(=O)[C@H](CCC(=O)O)NC(=O)[C@@H]1CCCN1C(=O)[C@@H]1C2CCCCC2CN1C(=O)[C@H](CCCCN)NC(=O)CNC(=O)[C@H](CC(C)C)NC(=O)CNC(=O)[C@@H]1CCCN1C(=O)[C@@H]1C2CCCCC2CN1C(=O)[C@H](CCCCN)NC(=O)CNC(=O)[C@H](CC(C)C)NC(=O)CNC(=O)[C@@H]1CCCN1C(=O)[C@@H]1C2CCCCC2CN1C(=O)[C@H](CCSC)NC(=O)[C@H](CCCCN)NC(=O)CN)C(=O)NCC(=O)N[C@@H](CCCNC(=N)N)C(N)=O (some centres not stated) (H-GKM[Pro(3ξ,4ξ-(CH2)4)]PGLGK[Pro(3ξ,4ξ-(CH2)4)]PGLGK[Pro(3ξ,4ξ-(CH2)4)]PELMGR-NH2)?
Activity (Salmonella typhimurium): inactive; Activity (Staphylococcus aureus): inactive

What does the source list for CSCC[C@H](NC(=O)[C@H](CC(C)C)NC(=O)[C@H](CCC(=O)O)NC(=O)[C@@H]1CCCN1C(=O)[C@@H]1Cc2ccccc2CN1C(=O)[C@H](CCCCN)NC(=O)CNC(=O)[C@H](CC(C)C)NC(=O)CNC(=O)[C@@H]1CCCN1C(=O)[C@@H]1Cc2ccccc2CN1C(=O)[C@H](CCCCN)NC(=O)CNC(=O)[C@H](CC(C)C)NC(=O)CNC(=O)[C@@H]1CCCN1C(=O)[C@@H]1Cc2ccccc2CN1C(=O)[C@H](CCSC)NC(=O)[C@H](CCCCN)NC(=O)CN)C(=O)NCC(=O)N[C@@H](CCCNC(=N)N)C(N)=O (H-GKM[Tic]PGLGK[Tic]PGLGK[Tic]PELMGR-NH2)?
Activity (Salmonella typhimurium): inactive; Activity (Staphylococcus aureus): inactive

CC(C)C[C@H](NC(=O)CNC(=O)[C@H](CCCCN)NC(=O)CN)C(=O)N1Cc2ccccc2C[C@H]1C(=O)N1CC2CCCCC2[C@H]1C(=O)NCC(=O)N[C@@H](CCCN)C(=O)N1Cc2ccccc2C[C@H]1C(=O)N1CC2CCCCC2[C@H]1C(=O)NCC(=O)N[C@@H](Cc1ccccc1)C(=O)N1Cc2ccccc2C[C@H]1C(=O)N1CC2CCCCC2[C@H]1C(=O)NCC(=O)N[C@@H](CCCCN)C(=O)N1Cc2ccccc2C[C@H]1C(=O)N1CC2CCCCC2[C@H]1C(=O)NCC(=O)N[C@@H](Cc1ccccc1)C(=O)N1Cc2ccccc2C[C@H]1C(=O)N1CC2CCCCC2[C@H]1C(=O)NCC(=O)N[C@@H](CCCCN)C(=O)N1Cc2ccccc2C[C@H]1C(=O)N1CC2CCCCC2[C@H]1C(=O)NCC(=O)N[C@@H](CCCCN)C(=O)N[C@@H](CCCNC(=N)N)C(N)=O (some centres not stated) (H-GKGL[Tic][Pro(3ξ,4ξ-(CH2)4)]G[Orn][Tic][Pro(3ξ,4ξ-(CH2)4)]GF[Tic][Pro(3ξ,4ξ-(CH2)4)]GK[Tic][Pro(3ξ,4ξ-(CH2)4)]GF[Tic][Pro(3ξ,4ξ-(CH2)4)]GK[Tic][Pro(3ξ,4ξ-(CH2)4)]GKR-NH2) was tested. Which Activity (Salmonella typhimurium) did it give?
Its Activity is “inactive”.

With CC(C)C[C@H](NC(=O)CNC(=O)[C@H](CCCCN)NC(=O)CN)C(=O)N1Cc2ccccc2C[C@H]1C(=O)N1CC2CCCCC2[C@H]1C(=O)NCC(=O)N[C@@H](CCCCN)C(=O)N1Cc2ccccc2C[C@H]1C(=O)N1CC2CCCCC2[C@H]1C(=O)NCC(=O)N[C@@H](Cc1ccccc1)C(=O)N1Cc2ccccc2C[C@H]1C(=O)N1CC2CCCCC2[C@H]1C(=O)NCC(=O)N[C@@H](CCCCN)C(=O)N1Cc2ccccc2C[C@H]1C(=O)N1CC2CCCCC2[C@H]1C(=O)NCC(=O)N[C@@H](Cc1ccccc1)C(=O)N1Cc2ccccc2C[C@H]1C(=O)N1CC2CCCCC2[C@H]1C(=O)NCC(=O)N[C@@H](CCCCN)C(=O)N1Cc2ccccc2C[C@H]1C(=O)N1CC2CCCCC2[C@H]1C(=O)NCC(=O)N[C@@H](CCCCN)C(=O)N[C@@H](CCCNC(=N)N)C(N)=O (some centres not stated) (H-GKGL[Tic][Pro(3ξ,4ξ-(CH2)4)]GK[Tic][Pro(3ξ,4ξ-(CH2)4)]GF[Tic][Pro(3ξ,4ξ-(CH2)4)]GK[Tic][Pro(3ξ,4ξ-(CH2)4)]GF[Tic][Pro(3ξ,4ξ-(CH2)4)]GK[Tic][Pro(3ξ,4ξ-(CH2)4)]GKR-NH2) as the compound, how does the MIC (Staphylococcus aureus) read?
Its MIC is 10 µM (≈ 35.4 µg/mL).

With CC[C@H](C)[C@H](NC(=O)CN)C(=O)NCC(=O)N[C@@H](CCCCN)C(=O)N[C@@H](Cc1ccccc1)C(=O)N[C@@H](CC(C)C)C(=O)N[C@@H](Cc1cnc[nH]1)C(=O)N[C@@H](CO)C(=O)N[C@@H](C)C(=O)NCC(=O)N[C@@H](CCCCN)C(=O)N[C@@H](Cc1ccccc1)C(=O)NCC(=O)N[C@@H](CCCCN)C(=O)N[C@@H](C)C(=O)N[C@@H](Cc1ccccc1)C(=O)N[C@H](C(=O)NCC(=O)N[C@@H](CCC(=O)O)C(=O)N[C@H](C(=O)N[C@@H](CCSC)C(=O)N[C@@H](CCCCN)C(=O)N[C@@H](CO)C(N)=O)[C@@H](C)CC)C(C)C [MAGAININ 1] as the compound, how does the MIC (Salmonella typhimurium; Salmonella enterica) read?
Its MIC is 30 µM (≈ 72.3 µg/mL).

Reference: ChEMBL document CHEMBL1145395, “De novo design of selective antibiotic peptides by incorporation of unnatural amino acids” (J Med Chem, 2007)
